Here are results for 25 compounds from patent US20110082204A1, “N-alkylcarbonyl-amino acid ester and N-alkylcarbonyl-amino lactone compounds and their use” (priority 2006, published 2011).

By Log P is commonly meant a log measure of how a compound divides between an organic and an aqueous phase. Read a low Log P as a more hydrophilic compound.

The nature of data set [1]: Log P of tested compounds. The class given is physicochemical.
The subject of the next data set is eyelids/ocular surface. Nature of the data set: Cooling after wiping closed eyelids with a towelette. The class given is in vivo, human. The conditions noted are these: eye wipes, 1 mg/ml in 5%-95% v/v ethanol-distilled water. Here is the method:
A second method of testing was to take a towelette saturated with a test solution of the cooling agent and to wipe the towelette over the dosed eyelids. The presence or absence of cooling (or irritanty, if applicable) sensations was then recorded at 10 minute intervals until the cessation of coolness in two successive intervals.
For testing of cooling compounds delivered to the eyelids with a towelette, the following procedures were used in the experiments of Table 3 and in Study 5 and 6. Three ml of liquid suspension or solution in distilled water was added to a 0.4 g cotton rectangle (50 mm×60 mm) (CS-being, Daisan Cotton, Japan) and individually sealed with a vaccuum apparatus (Foodsaver®, Jarden Corp.). Samples were stored in the freezer or refrigerator and thawed to room temperature before use. Wiping with the cotton pad delivers 40 to 45 μl of liquid composition to the eyelids ([…] to 22 μl per eye). So, if the concentration of the test substance was 1 mg/ml, the dose delivered to both eyes is a total of ˜40 to […], or ˜20 μg per eye. This method allows a reliable delivery of test substances because the dissolved or suspended particles in solution are evenly dispersed on the cotton pad in an excess volume of liquid. The presence or absence of cooling sensations was noted as being present or absent at 5 to 10 min intervals until no coolness was noticeable in two successive test intervals. Only the duration of cooling on the ocular surface was recorded, without an attempt to quantify the intensity of the sensation.

A further data set deals with philtrum skin. Nature of the data set: Cooling sensation after ointment applied to philtrum skin. The class given is in vivo, human. The conditions noted are these: for Duration of cooling, Philtrum Skin: 5 mg/ml in Aquaphor ointment on philtrum skin; for duration of cooling (FIG. 1): 40 to 70 mg of 1% wt/vol (10 mg/ml) ointment on skin above the upper lips; for duration of action / onset on philtrum skin: Study 1. From the text:
A reliable place for topical application is the skin above the upper lip (above the vermilion border of the lips), on the philtrum, lateral to the philtrum until the nasolabial folds, and on the lower nostrils (subnasale). This part of the face is known to be densely innervated with cold receptors, second only to the surfaces of the eyeball and anogenitalia.
The intensity of the subjective skin sensation is rated as 0, 1, 2 or 3 with: 0 as no change; 1 as slight coolness, cold, or tingling; 2 as clear-cut signal of coolness, cold, or tingling; and 3 as robust cooling or cold. The intervals for recording sensations are 5 to 10 minutes, until two successive zeroes are obtained. The results (shown in FIG. 1) are averaged values of 4 to 6 separate trials in the same individual. The data are plotted using SigmaPlot® (Systat Software, Point Richmond Calif.) and a smoothing function with a negative exponential was used for analysis and statistical fit of the results. Confirmatory trials of cooling action of the long-acting NACE compounds were obtained in 2 to 4 individuals but not quantified for some because of the large number of chemicals that were evaluated
The onset of drug action is taken as the time to reach 2 units of coolness intensity, and offset of drug action is the time when coolness intensity drops below 2, after previously surpassing 2 units. The duration of cooling action is defined as the offset time minus the onset time. […] The quality of the sensation is noted, for example, as pure refreshing coolness, or if the sensation is accompanied by irritation (stinging or burning). The quality of the sensation is not rated for intensity.
For bioassay on the skin, approximately 30 mg was stirred and dissolved in 3 g of warm liquid Aquaphor® ointment to a yield 5 to 10 mg/ml (0.5% to 1.0 wt/vol) ointment. After cooling, 40 to 70 mg of the solid ointment was placed on the tip of a plastic stick and applied to the skin above the upper lip, on the philtrum, and lateral to the philtrum, up to the nasolabial folds, of test subjects and the onset and duration of cooling sensations noted.
The intensity of the subjective skin sensation was rated as 0, 1, 2 or 3 with: 0 as no change; 1 as slight coolness, cold, or tingling; 2 as clear signal of coolness, cold, or tingling; and 3 as robust cooling or cold. The intervals for recording sensations were 5 to 10 minutes, until two successive zeroes were obtained. The results (shown in FIG. 1) are averaged values of 4 to 6 separate trials in the same individual. The data are plotted using SigmaPlot® (Systat Software, Point Richmond, Calif., USA) and a smoothing function with a negative exponential was used for analysis and statistical fit of the results.
The onset of drug action was taken as the time to reach 2 units of coolness intensity, and offset of drug action was the time when coolness intensity drops below 2, after previously surpassing 2 units. The duration of cooling action was defined as the offset time minus the onset time. […] The quality of the sensation was also noted: such as pure refreshing coolness, or if the sensation was accompanied by irritation (stinging or burning). The quality of the sensation was not rated for intensity.
For the results in FIG. 1, the test compounds were singly applied to the skin above the upper lips at a 40 to 70 mg dose of a 1% wt/vol (10 mg/ml) ointment. Subsequently, for the results shown in Table 3, the test dose on the philtrum was reduced to a 0.5% wt/vol (5 mg/ml) ointment. The reason for choosing a lower dose was to increase the number of trials per individual and to have a reduced chance of substances accumulating in the skin.

Data set [2] deals with dorsal surface of the tongue. The conditions noted are these: threshold amount producing cooling on tongue of human volunteers; values from Watson US 04178459; cited from earlier work.
The subject of a further data set is periorbital skin. The experiment in a line: Ointment applied to periorbital skin: coolness, eye irritancy, alerting (Study 3). The class given is in vivo, human. The conditions noted are these: ointment on periorbital area; for skin coolness and refreshment: conditions similar to Study 3. From the text:
The ointment was also applied to the periorbital skin (upper and lower eyelids and on skin adjacent to the lateral canthus) for tests of irritancy near the eyes, and the subject is asked if irritation is present or absent. The intensity of the eye sensation is not rated.
For tests of irritancy near the eyes in Study 3 and 4, the ointment was applied to the periorbital skin (upper and lower eyelids and on skin adjacent to the lateral canthus), and the subject asked if irritation is present or absent. The intensity of the eye sensation is not rated, but just noted as being present or absent
A 1% preparation of 2-isopropyl-5-methyl-cyclohexanecarbonyl D-alanine methyl ester in Aquaphor® ointment was applied bilaterally to the periorbital area of four individuals. […] This experiment was then repeated three days later in the evening with the same individuals whose occupations required daylong activities before a computer screen.

`CC1CCC(C(C)C)C(C(=O)NC2CCOC2=O)C1` (mixture of isomers) [racemic Hsl]: the “Log P” value in data set [1] is 2.5.

In the case of `CCCCOC(=O)[C@@H](C)NC(=O)[C@@H]1C[C@H](C)CC[C@H]1C(C)C` [D-Ala nBu Ester], in the data set on eyelids/ocular surface, the “Duration of cooling, Eyelids/Ocular Surface” value was determined as 40 min. The “Log P” value in data set [1] is given as 4.4. For the same compound, in the data set on philtrum skin, the “Duration of cooling, Philtrum Skin” value came out at 80 min.

As for `CCCOC(=O)[C@@H](C)NC(=O)[C@@H]1C[C@H](C)CC[C@H]1C(C)C` [D-Ala nPr Ester], the “Duration of cooling, Eyelids/Ocular Surface” value with eyelids/ocular surface amounted to 65 min. Moreover, in data set [1], the “Log P” value worked out at 3.8. In the data set on philtrum skin, the “Duration of cooling, Philtrum Skin” value turned out to be 108 min.

For `CC(C)[C@@H]1CC[C@@H](C)C[C@H]1C(=O)N[C@@H]1CCOC1=O` [D-Hsl], the “Log P” value in data set [1] was 2.5. Moreover, in the data set on philtrum skin, the “duration of cooling (FIG. 1)” value was 1.3 h.

As for `COC(=O)[C@@H](C)N(C)C(=O)[C@@H]1C[C@H](C)CC[C@H]1C(C)C` [D-NMe Ala Ester], the “Duration of cooling, Eyelids/Ocular Surface” value in the data set on eyelids/ocular surface was 0 min. Besides, the “Duration of cooling, Philtrum Skin” value with philtrum skin was found to be 0 min.

Consider `COC(=O)[C@H](NC(=O)[C@@H]1C[C@H](C)CC[C@H]1C(C)C)C(C)C` [D-Val Me Ester], for which the “Log P” value in data set [1] is 4.2.

With `COC(=O)CCC(NC(=O)C1CC(C)CCC1C(C)C)C(=O)OC` (centres unmarked) [Glu(OMe) Me Ester], the “Log P” value in data set [1] stood at 2.2.

For the compound `CCOC(=O)CNC(=O)[C@@H]1C[C@H](C)CC[C@H]1C(C)C` [Gly Et Ester (WS-5), reference compound], the “Threshold tongue” value in data set [2] is 0.2 µg. Also, the “Duration of cooling, Eyelids/Ocular Surface” value with eyelids/ocular surface was 15 min. Besides, the “Log P” value in data set [1] is listed as 2.9. In the data set with philtrum skin, the “Duration of cooling, Philtrum Skin” value amounted to 24 min; the “duration of cooling (FIG. 1)” value stood at 0.5 h; the “duration of action / onset on philtrum skin” value (shortened to “duration of action / onset”) was “short duration of action (less than 1 hour) on the philtrum skin or slow onset (more than 5 minutes)”.

On to `COC(=O)CNC(=O)C1CC(C)CCC1C(C)C` (centres unmarked) [Gly Me Ester (WS-31), reference compound], for which the “Threshold tongue” value in data set [2] is 0.6 µg. Further, in data set [1], the “Log P” value worked out at 2.4. In the data set on philtrum skin, the “duration of action / onset” value is on record as “short duration of action (less than 1 hour) on the philtrum skin or slow onset (more than 5 minutes)”.

For the compound `CCCCOC(=O)CNC(=O)[C@@H]1C[C@H](C)CC[C@H]1C(C)C` [Gly nBu Ester], in the data set on eyelids/ocular surface, the “Duration of cooling, Eyelids/Ocular Surface” value is 35 min. Further, the “Log P” value in data set [1] is 4.0. For the same compound, the “Duration of cooling, Philtrum Skin” value with philtrum skin amounted to 38 min.

Turning to `CCCOC(=O)CNC(=O)[C@@H]1C[C@H](C)CC[C@H]1C(C)C` [Gly nPr Ester], the “Threshold tongue” value in data set [2] was 0.3 µg. Also, the “Duration of cooling, Eyelids/Ocular Surface” value in the data set with eyelids/ocular surface was determined as 54 min. For the same compound, in data set [1], the “Log P” value is 3.4. The “Duration of cooling, Philtrum Skin” value in the data set on philtrum skin is 42 min.

Consider `CCOC(=O)[C@H](C)NC(=O)[C@@H]1C[C@H](C)CC[C@H]1C(C)C` [L-Ala Et Ester], for which, in data set [2], the “Threshold tongue” value is 0.4 µg. Besides, the “Duration of cooling, Eyelids/Ocular Surface” value in the data set on eyelids/ocular surface was found to be 0 min. In addition, the log partition coefficient (Log P) in data set [1] was found to be 3.1. In addition, the “Duration of cooling, Philtrum Skin” value with philtrum skin was 34 min.

`COC(=O)[C@H](C)NC(=O)[C@@H]1C[C@H](C)CC[C@H]1C(C)C` [L-Ala Me Ester]: the “Threshold tongue” value in data set [2] is 0.6 µg. Further, the “Log P” value in data set [1] was 2.8.

Consider `CC(C)[C@@H]1CC[C@@H](C)C[C@H]1C(=O)N[C@H]1CCOC1=O` [L-Hsl], for which, in data set [1], the “Log P” value turned out to be 2.5.

As for `COC(=O)[C@H](CC(C)C)NC(=O)[C@@H]1C[C@H](C)CC[C@H]1C(C)C` [L-Leu Me Ester], the “Log P” value in data set [1] turned out to be 4.3.

As for `CC(C)[C@@H]1CC[C@@H](C)C[C@H]1C(=O)N[C@@H](CCCCNC(=O)OCc1ccccc1)C(=O)OC(C)(C)C` [L-Lys(Z) t-Bu Ester], the “Log P” value in data set [1] was 5.9.

For `COC(=O)[C@@H]1CCCN1C(=O)[C@@H]1C[C@H](C)CC[C@H]1C(C)C` [L-Pro Me Ester], the log partition coefficient (Log P) in data set [1] amounted to 3.3.

With `CCOC(=O)[C@H](CO)NC(=O)[C@@H]1C[C@H](C)CC[C@H]1C(C)C` [L-Ser Et Ester], the “Log P” value in data set [1] was 1.8.

`COC(=O)[C@@H](NC(=O)[C@@H]1C[C@H](C)CC[C@H]1C(C)C)C(C)C` [L-Val Me Ester]: the “Log P” value in data set [1] stood at 4.2.

With `CCOC(=O)C(C)N(C)C(=O)C1CC(C)CCC1C(C)C` [N—Me-D-Ala Et Ester], in data set [1], the lipophilicity (Log P) is given as 3.2.

Turning to `CCOC(=O)CN(C)C(=O)[C@@H]1C[C@H](C)CC[C@H]1C(C)C` [Sar Et Ester], the “Threshold tongue” value in data set [2] was 0.8 µg. The lipophilicity (Log P) in data set [1] was found to be 2.9.

Consider `COc1ccc(NC(=O)[C@@H]2C[C@H](C)CC[C@H]2C(C)C)cc1` [WS-12, reference compound], for which the “Threshold tongue” value in data set [2] was 0.2 µg. Moreover, the “Log P” value in data set [1] was determined as 5.3. In the data set with philtrum skin, the “duration of action / onset” value is recorded as “short duration of action (less than 1 hour) on the philtrum skin or slow onset (more than 5 minutes)”.

Consider `CC(C)[C@@H]1CC[C@@H](C)C[C@H]1C(=O)NC(C)(C)C` [WS-14], for which, in data set [2], the “Threshold tongue” value was 0.4 µg. For the same compound, in the data set with periorbital skin, the “irritation of skin / eye surfaces” value is “produced significant skin and eye irritation”; the “skin coolness and refreshment” value is “did not enhance skin coolness or provide satisfactory refreshment”. For the same compound, in data set [1], the “Log P” value was determined as 4.5.

As for `CNC(=O)C(C)(C(C)C)C(C)C` [WS-23, N-2,3-trimethyl-2-isopropylbutanamide], in the data set with periorbital skin, the “irritation of skin / eye surfaces” value is “produced significant skin and eye irritation”; the “skin coolness and refreshment” value is reported as “did not enhance skin coolness or provide satisfactory refreshment”. Further, the “duration of action / onset” value in the data set with philtrum skin was “short duration of action (less than 1 hour) on the philtrum skin or slow onset (more than 5 minutes)”.

For `CCOC(=O)CCNC(=O)[C@@H]1C[C@H](C)CC[C@H]1C(C)C` [β-Ala Et Ester], in data set [2], the “Threshold tongue” value is 1.5 µg. In data set [1], the lipophilicity (Log P) stood at 3.1.
